Test results: article PMC11721616, “Evaluation of N-alkyl isatins and indoles as acetylcholinesterase and butyrylcholinesterase inhibitors” (Journal of Enzyme Inhibition and Medicinal Chemistry, 2023)
“And” between values parts separate entries of the source, which are not always exact repeats. Equal entries are not always repeated. Where two headings read alike, the source gives them in different places.

Key:
BChE [1] = biological target: T1, BChE (Equus caballus, UniProt P81908); experiment: biochemical; assay type: biochemical; settings: for Selectivity: calculated as AChE IC50/BChE IC50
T1 construct: BChE (Lee Biosolutions, Product No. 130–10-1, from equine serum); purchased Lee Biosolutions 130–10-1; host or cells: equine serum
Experimental: (§1) Inhibition of AChE (Sigma-Aldrich, Product No. C2888, from Electrophorus electricus) and BChE (Lee Biosolutions, Product No. 130–10-1, from equine serum) was carried out as previously described by our lab[18]^,[19]. Briefly, compounds to be tested were prepared in sodium phosphate (dibasic) buffer (0.1 M) containing 10% DMSO and then diluted with phosphate buffer across the wells of a 96-well plate to reach desired concentrations (50 µL total well volume). AChE (50 µL, 400 U/L, in phosphate buffer) or BChE (50 µL, 400 U/L, in phosphate buffer) was added to the appropriate wells. After incubation, the enzymatic reaction was initiated with 100 µL of a 1:1 (v/v) solution of acetylthiocholine (ATC, 2 mM in phosphate buffer) or butyrylthiocholine (BTC, 2 mM in phosphate buffer) and 5,5′-dithiobis-(2-nitrobenzoic acid) (DTNB, 1 mM in phosphate buffer). […] IC50 values were calculated using GraphPad Prism 9.1.1.
(§2) The synthesis of the target molecules 4a-j and 5a-j was carried out in straightforward fashion by substitution of isatin or indole with iodomethane or 1-bromoalkanes in the presence of K2CO3 and DMF or NaOH and DMSO (Scheme 1). […] A DEPT135 experiment was run to differentiate this signal (negative) from the solvent (positive) (see supplementary data), as we have employed previosuly. The synthesised compounds were then evaluated as AChEI and BChEI using the established Ellman method. Results are reported as IC50 values in Table 1.

AChE [2] = biological target: T2, AChE (Electrophorus electricus, UniProt O42275); experiment: AChE inhibition assay (Ellman method); assay type: biochemical
T2 construct: purchased Sigma-Aldrich C2888
Experimental: as §1, §2

AChE [3] = biological target: T2, AChE; settings: values previously determined; cited from earlier work
BChE [4] = settings: previously reported by Hyatt et al.; cited from earlier work
AChE [5] = settings: previously reported by Hyatt et al.; cited from earlier work
BChE [6] = biological target: T1, BChE; settings: read-out: BChE IC50; values previously determined; cited from earlier work
AChE [7] = biological target: T2, AChE; settings: previously reported; cited from earlier work
BChE [8] = biological target: T1, BChE; settings: previously reported; cited from earlier work
BChE [9] = biological target: T1, BChE; experiment: Kinetics assay of BChE inhibition (Lineweaver-Burk plot); assay type: biochemical, equine; settings: Lineweaver-Burk analysis with respect to butyrylthiocholine (BTC)
Experimental: (§3) Kinetics assays of 4i inhibition with AChE and BChE were also carried out as previously described[18]^,[19]. Briefly, varying concentrations of 4i were incubated with AChE and BChE before initiating the enzymatic reactions by addition of 100 µL of a 1:1 (v/v) solution of ATC or BTC (0.4 mM, 0.5 mM, 1 mM, or 2 mM in phosphate buffer) and DTNB (1 mM in phosphate buffer) to all wells. […] Rate vs concentration was fitted to a Lineweaver-Burk plot using GraphPad Prism 9.1.1.

AChE [10] = biological target: T2, AChE; experiment: Kinetics assay of AChE inhibition (Lineweaver-Burk plot); assay type: biochemical; settings: Lineweaver-Burk analysis with respect to acetylthiocholine (ATC)
Experimental: as §3

[11] = mean of three independent experiments ± SEM, > X = highest soluble concentration tested, read-out: BChE IC50
[12] = mean of three independent experiments ± SEM, > X = highest soluble concentration tested, read-out: AChE IC50

T1 sequence (P81908 whole entry): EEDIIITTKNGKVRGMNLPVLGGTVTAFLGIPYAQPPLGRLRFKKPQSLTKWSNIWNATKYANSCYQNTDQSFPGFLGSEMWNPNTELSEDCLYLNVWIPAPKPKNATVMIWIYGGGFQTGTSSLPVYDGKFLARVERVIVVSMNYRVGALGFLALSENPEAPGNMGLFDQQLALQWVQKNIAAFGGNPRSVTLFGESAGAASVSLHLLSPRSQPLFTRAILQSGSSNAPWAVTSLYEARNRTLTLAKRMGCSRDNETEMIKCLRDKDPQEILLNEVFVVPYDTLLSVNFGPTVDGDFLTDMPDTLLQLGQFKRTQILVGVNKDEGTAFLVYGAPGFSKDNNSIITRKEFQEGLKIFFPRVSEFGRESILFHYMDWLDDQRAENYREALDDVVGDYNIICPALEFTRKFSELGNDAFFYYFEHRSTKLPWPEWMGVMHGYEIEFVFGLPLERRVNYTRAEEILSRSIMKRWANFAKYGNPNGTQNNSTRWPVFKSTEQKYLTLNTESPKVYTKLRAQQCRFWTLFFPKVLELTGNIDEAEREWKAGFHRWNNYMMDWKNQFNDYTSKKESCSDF
T2 sequence (O42275 24-633): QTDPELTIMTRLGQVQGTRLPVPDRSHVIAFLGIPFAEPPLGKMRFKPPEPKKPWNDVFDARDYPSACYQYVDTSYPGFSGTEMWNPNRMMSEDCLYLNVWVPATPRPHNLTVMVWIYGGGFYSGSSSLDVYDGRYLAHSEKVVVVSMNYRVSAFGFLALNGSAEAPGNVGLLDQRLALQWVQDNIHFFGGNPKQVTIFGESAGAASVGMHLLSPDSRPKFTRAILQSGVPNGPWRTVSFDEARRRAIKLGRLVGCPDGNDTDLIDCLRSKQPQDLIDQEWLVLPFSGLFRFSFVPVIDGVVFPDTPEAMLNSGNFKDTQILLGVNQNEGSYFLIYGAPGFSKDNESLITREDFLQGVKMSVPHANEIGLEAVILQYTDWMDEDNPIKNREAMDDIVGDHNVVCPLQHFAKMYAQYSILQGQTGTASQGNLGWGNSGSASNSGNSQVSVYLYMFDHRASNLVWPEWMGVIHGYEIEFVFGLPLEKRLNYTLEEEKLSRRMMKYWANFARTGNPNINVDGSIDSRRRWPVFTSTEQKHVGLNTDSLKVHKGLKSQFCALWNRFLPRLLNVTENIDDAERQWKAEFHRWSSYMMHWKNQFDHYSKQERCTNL

Row | Structure (SMILES) | Selectivity (BChE [1]) | IC50 (BChE [1]; [11]) [µM] | IC50 (AChE [2]; [12]) [µM] | also measured
1 | CCCCCCN1C(=O)C(=O)c2ccccc21 [Compound 4f, 1-Hexylindoline-2,3-dione] | > 1.4 | 90.8 ± 2.3 | > 125 | –
2 | CCCN1C(=O)C(=O)c2ccccc21 [Compound 4c, 1-Propylindoline-2,3-dione] | 2.0 | 257 ± 8 | 519 ± 11 | –
3 | CCCCCn1ccc2ccccc21 [Compound 5e, 1-Pentyl-1H-indole] | < 0.8 | > 125 | 95 ± 5.9 | –
4 | CCN1C(=O)C(=O)c2ccccc21 [Compound 4b, 1-Ethylindoline-2,3-dione] | 1.5 | 193 ± 8 | 297 ± 35 | –
5 | Cn1ccc2ccccc21 [Compound 5a, 1-Methyl-1H-indole] | < 0.7 | – | – | IC50 (BChE [1]): > 125 µM; IC50 (AChE [2]): 86.7 ± 4.5 µM
6 | CCCCCCn1ccc2ccccc21 [Compound 5f, 1-Hexyl-1H-indole] | < 0.6 | > 125 | 76.2 ± 1.6 | –
7 | CCCCCCCCCCN1C(=O)C(=O)c2ccccc21 [Compound 4j, 1-Decylindoline-2,3-dione] | 12.1 | 5.16 ± 0.66 | 62.2 ± 8.5 | –
8 | CCCCCCCCn1ccc2ccccc21 [Compound 5h, 1-Octyl-1H-indole] | < 0.8 | > 62.5 | 49.5 ± 1.8 | –
9 | CCCCN1C(=O)C(=O)c2ccccc21 [Compound 4d, 1-Butylindoline-2,3-dione] | 7.3 | 73.7 ± 1.3 | – | IC50 (AChE [3]): 540 ± 23 µM
10 | CCCCCCCCCCCCCCCCN1C(=O)C(=O)c2ccccc21 [N-hexadecyl isatin] | – | – | – | Ki (BChE [4]): > 100 µM; Ki (AChE [5]): > 100 µM
11 | CCCCCCCCN1C(=O)C(=O)c2ccccc21 [Compound 4h, 1-Octylindoline-2,3-dione] | > 7.0 | 17.9 ± 1.8 | > 125 | –
12 | CCCCCCCCCCCCN1C(=O)C(=O)c2ccccc21 [N-dodecyl isatin] | – | – | – | Ki (BChE [4]): > 100 µM; Ki (AChE [5]): > 100 µM
13 | CCCCCCCN1C(=O)C(=O)c2ccccc21 [Compound 4g, 1-Heptylindoline-2,3-dione] | 3.3 | 20.7 ± 3.3 | 67.8 ± 7.8 | –
14 | CCCn1ccc2ccccc21 [Compound 5c, 1-Propyl-1H-indole] | < 0.6 | > 125 | 78.6 ± 2.3 | –
15 | O=C1Nc2ccccc2C1=O [isatin, indoline-2,3-dione] | – | – | – | IC50 (BChE [6]): > 1000 µM; IC50 (AChE [3]): > 1000 µM
16 | CCCCCCCn1ccc2ccccc21 [Compound 5g, 1-Heptyl-1H-indole] | < 0.6 | > 62.5 | 35 ± 10.5 | –
17 | CN1C(=O)C(=O)c2ccccc21 [Compound 4a, 1-Methylindoline-2,3-dione] | < 0.6 | – | – | Ki (BChE [4]): > 100 µM; Ki (AChE [5]): > 100 µM; IC50 (BChE [1]): > 1000 µM; IC50 (AChE [2]): 647 ± 57 µM
18 | CCCCCCCCCCn1ccc2ccccc21 [Compound 5j, 1-Decyl-1H-indole] | < 0.8 | > 62.5 | 48.6 ± 1.4 | –
19 | C=C1SC(SCCCN2C(=O)C(=O)c3ccccc32)=NC1(C)C [Compound 3] | – | – | – | IC50 (AChE [3]): 18.2 µM; mode of inhibition of AChE (AChE [7]): non-competitive inhibition
20 | CCCCCCCCCn1ccc2ccccc21 [Compound 5i, 1-Nonyl-1H-indole] | < 0.7 | > 62.5 | 44.6 ± 1.7 | loss of potency towards BChE compared to 4i (BChE [1]; inhibition assay, 5i vs 4i): > 17 fold
21 | O=C1C(=O)N(CCCCCN2C(=O)C(=O)c3ccccc32)c2ccccc21 [Compound 1] | – | – | – | mode of inhibition of BChE (BChE [8]): mixed inhibition
22 | CCCCn1ccc2ccccc21 [Compound 5d, 1-Butyl-1H-indole] | – | > 125 | > 125 | –
23 | CCn1ccc2ccccc21 [Compound 5b, 1-Ethyl-1H-indole] | < 0.8 | – | – | IC50 (BChE [1]): > 125 µM; IC50 (AChE [2]): 101 ± 6 µM
24 | CCCCCN1C(=O)C(=O)c2ccccc21 [Compound 4e, 1-Pentylindoline-2,3-dione] | 2.4 | 83.8 ± 3.4 | 197 ± 51 | –
25 | CCCCCCCCCN1C(=O)C(=O)c2ccccc21 [Compound 4i, 1-Nonylindoline-2,3-dione] | 22 and 21.8 | 3.77 ± 0.45 | 82.1 ± 8.1 | mode of inhibition of BChE (BChE [9]): mixed inhibition; mode of inhibition of AChE (AChE [10]): non-competitive inhibition
